# According to patent US9045443B2, “Nitric oxide donor neprilysin inhibitors” (Theravance Biopharma R&D IP, LLC, priority 2012, dated 2015):
# Molecular target: T1, human NEP (Homo sapiens, UniProt P08473)
# T1 construct: purchased R&D Systems, Minneapolis, Minn; 1182-ZN
# Assay: In vitro enzyme inhibition assay at human NEP (Assay 1)
# Assay type: biochemical
# Conditions: recombinant human NEP, fluorogenic peptide substrate 10 μM, 37° C.; values may be affected by hydrolysis in the assay conditions, approximations; read-out: pKi at human NEP (converted)
# Protocol: The inhibitory activities of compounds at human and rat neprilysin (EC 3.4.24.11; NEP) and human angiotensin converting enzyme (ACE) were determined using in vitro assays as described below.
# Recombinant human NEP and recombinant human ACE were obtained commercially (R&D Systems, Minneapolis, Minn., catalog numbers 1182-ZN and 929-ZN, respectively). The fluorogenic peptide substrate Mca-D-Arg-Arg-Leu-Dap-(Dnp)-OH (Medeiros et al. (1997) Braz. J. Med. Biol. Res. 30:1157-62; Anaspec, San Jose, Calif.) and Abz-Phe-Arg-Lys(Dnp)-Pro-OH (Araujo et al. (2000) Biochemistry 39:8519-8525; Bachem, Torrance, Calif.) were used in the NEP and ACE assays respectively.
# The assays were performed in 384-well white opaque plates at 37° C. using the fluorogenic peptide substrates at a concentration of 10 μM in Assay Buffer (NEP: 50 mM HEPES, pH 7.5, 100 mM NaCl, 0.01% polyethylene glycol sorbitan monolaurate (Tween-20), 10 μM ZnSO4; ACE: 50 mM HEPES, pH 7.5, 100 mM NaCl, 0.01% Tween-20, 1 μM ZnSO4).
# Test compounds were assayed over the range of concentrations from […] to 20 μM. Test compounds were added to the enzymes and incubated for 30 minute at 37° C. prior to initiating the reaction by the addition of substrate. Reactions were terminated after 20 minutes of incubation at 37° C. by the addition of glacial acetic acid to a final concentration of 3.6% (v/v).
# Plates were read on a fluorometer with excitation and emission wavelengths set to 320 nm and 405 nm, respectively Inhibition constants were obtained by nonlinear regression of the data using the equation (GraphPad Software, Inc., San Diego, Calif.): v=v0/[1+(I/K′)] where v is the reaction rate, v0 is the uninhibited reaction rate, I is the inhibitor concentration and K′ is the apparent inhibition constant.
# Compounds of the invention were tested in this assay and found to have pKi values at human NEP as follows, noting however, that these values may be affected by hydrolysis in the assay conditions and are therefore approximations of activity.
# T1 sequence (P08473 52-750 limits assumed): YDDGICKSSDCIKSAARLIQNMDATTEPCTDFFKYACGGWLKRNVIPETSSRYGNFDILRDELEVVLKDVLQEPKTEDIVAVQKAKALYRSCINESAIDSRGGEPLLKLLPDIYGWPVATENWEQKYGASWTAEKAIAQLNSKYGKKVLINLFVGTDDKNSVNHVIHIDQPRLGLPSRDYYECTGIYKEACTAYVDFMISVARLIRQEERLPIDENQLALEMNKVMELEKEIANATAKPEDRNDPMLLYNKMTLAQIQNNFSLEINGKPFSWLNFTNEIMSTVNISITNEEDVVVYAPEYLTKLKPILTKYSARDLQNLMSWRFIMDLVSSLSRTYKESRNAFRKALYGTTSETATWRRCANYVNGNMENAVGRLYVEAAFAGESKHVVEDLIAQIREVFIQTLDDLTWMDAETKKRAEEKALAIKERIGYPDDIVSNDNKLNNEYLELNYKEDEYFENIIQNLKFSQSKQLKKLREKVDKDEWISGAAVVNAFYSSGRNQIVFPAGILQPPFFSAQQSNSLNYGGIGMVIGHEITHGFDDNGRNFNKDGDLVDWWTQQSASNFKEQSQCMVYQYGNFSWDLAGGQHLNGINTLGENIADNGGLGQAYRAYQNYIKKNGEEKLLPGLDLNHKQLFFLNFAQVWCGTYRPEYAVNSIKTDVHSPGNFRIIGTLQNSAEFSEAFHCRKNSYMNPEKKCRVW
row,SMILES,Ki
1,"O=C(O)C(=O)N[C@H](Cc1ccc(-c2ccccc2)cc1)C[C@@H](O)C(=O)OCCCCO[N+](=O)[O-] [Example 3, (2R,4R)-5-Biphenyl-4-yl-2-hydroxy-4-(oxalylamino)-pentanoic Acid 4-Nitrooxybutyl Ester]",316 to 1000 nM
2,"O=C(O)C(=O)N[C@H](Cc1ccc(-c2ccccc2)cc1)C[C@@H](O)C(=O)OCCCCOc1no[n+]([O-])c1S(=O)(=O)c1ccccc1 [Example 4, (2R,4R)-5-Biphenyl-4-yl-2-hydroxy-4-(oxalylamino)-pentanoic Acid 4-(4-Benzenesulfonyl-5-oxyfurazan-3-yloxy)butyl Ester]",316 to 1000 nM
3,"O=C(N[C@H](Cc1ccc(-c2ccccc2)cc1)C[C@@H](O)C(=O)OCCCCOc1no[n+]([O-])c1S(=O)(=O)c1ccccc1)c1cc(O)no1 [Example 2, (2R,4R)-5-Biphenyl-4-yl-2-hydroxy-4-[(3-hydroxyisoxazole-5-carbonyl)amino]pentanoic Acid 4-(4-Benzenesulfonyl-5-oxyfurazan-3-yloxy)butyl Ester]",31.6 to 100 nM
4,"O=C(N[C@H](Cc1ccc(-c2ccccc2)cc1)C[C@@H](O)C(=O)OCCCCO[N+](=O)[O-])c1cc(O)no1 [Example 1, (2R,4R)-5-Biphenyl-4-yl-2-hydroxy-4-[(3-hydroxyisoxazole-5-carbonyl)amino]pentanoic Acid 4-Nitrooxybutyl Ester]",31.6 to 100 nM
